# Results: US6403343B2, “Method of producing a taxane-type diterpene and a method of obtaining cultured cells which produce the taxane-type dilterpene at a high rate” (Mitsui Chemicals, Inc., priority 1993, dated 2002)
# Tested on: cultured cells of Taxus baccata LINN
# Assay: Growth rate and taxane yield, 21-day shake culture of Taxus baccata cells with heavy metal compound, amine, antiethylene agent or Ethrel added
# Format: cell-based
# Experimental: (§1) One gram (fresh weight) of the callus was inoculated to an Erlenmeyer flask containing 20 ml of liquid Woody Plant Medium to which the above-mentioned component was added to give the same concentration and shake culture was carried out with a rotary shaker (amplification of 25 mm, 100 rpm) and the callus was subcultured in every 21 days to accelerate the growth rate thereof.
# Then shake culture was carried out at 25° C. for 21 days.
# (§2) After completing the culture, cultured cells of Taxus baccata LINN were harvested by filtration and lyophilized, then the dry weight was measured to obtain the growth rate thereof. Taxane-type diterpenes were extracted from the dried callus with methanol and the like, and they were determined by comparing with standard taxol, cephalomannine, and baccatin III using high performance liquid chromatography to measure the yields of the taxane-type diterpenes.
# as §1
# One gram (fresh weight) of the cultured cells thus obtained was inoculated to an Erlenmeyer flask containing 20 ml of liquid Woody Plant Medium to which the above-mentioned component had been added to give the same concentration, then spermidine was added to it as amine to give the final concentration of 10^−9M-1M. Then shake culture was carried out at 25° C. for 21 days.
# as §2, with “cells” for “callus”, “diterpene.” for “diterpenes.”
# as §1, with “component had been” for “component was”
# One gram (fresh weight) of the cultured cells thus obtained was inoculated to an Erlenmeyer flask containing 20 ml of liquid Woody Plant Medium to which the above-mentioned component had been added to give the same concentration, and shake culture was carried out at 25° C. for 14 days.
# [1] = Ethrel 10^−3 M added at the start (0 day), no acetylsalicylic acid, oxygen 20%
# [2] = Ethrel 10^−3 M added at the start (0 day), no acetylsalicylic acid, oxygen 20%, cell + medium
# [3] = 10^−1 M added at start, 21 days
# [4] = 10^−2 M added at start, 21 days
# [5] = 10^−3 M added at start, 21 days
# [6] = 10^−4 M added at start, 21 days
# [7] = 10^−5 M added at start, 21 days
# [8] = 10^−6 M added at start, 21 days
# [9] = 10^−7 M added at start, 21 days
# [10] = 10^−8 M added at start, 21 days
# [11] = 10^−9 M added at start, 21 days
# [12] = 1 M added on 14th day, 7 more days
# [13] = 10^−1 M added on 14th day, 7 more days
# [14] = 10^−2 M added on 14th day, 7 more days
# [15] = 10^−3 M added on 14th day, 7 more days
# [16] = 10^−4 M added on 14th day, 7 more days
# [17] = 10^−5 M added on 14th day, 7 more days
# [18] = 10^−6 M added on 14th day, 7 more days
# [19] = 10^−7 M added on 14th day, 7 more days
# [20] = 10^−8 M added on 14th day, 7 more days
# [21] = 10^−9 M added on 14th day, 7 more days
# [22] = 2×10^−6 M added 5 times at 4 days' intervals from day 0, total 10^−5 M
# [23] = 10^−5 M added on 7th day, 14 more days
# [24] = 10^−5 M added on 18th day, 3 more days
# [25] = 10^−5 M at start + methyl jasmonate 10^−4 M on 14th day
# [26] = 10^−5 M at start + methyl jasmonate 10^−4 M on 14th day, oxygen 10% in the gas phase
# [27] = 10^−5 M at start, oxygen 10% in the gas phase
smiles,measurement,setting,value
O=P(O)(O)CCCl [Reference Example 1],growth rate,[1],2.7 times
same,total yield of taxane,[1],0.40 mg/L
same,yield of baccatin III,[2],0.12 mg/L
same,yield of cephalomannine,[2],0.14 mg/L
same,yield of taxol,[2],0.14 mg/L
NCCCNCCCCNCCCN [spermin],growth rate,"1 M added at start, 21 days",1.0 times
same,total yield of taxane,"1 M added at start, 21 days",0.22 mg/L
same,yield of baccatin III,"1 M added at start, 21 days",0.10 mg/L
same,yield of cephalomannine,"1 M added at start, 21 days",0.04 mg/L
same,yield of taxol,"1 M added at start, 21 days",0.08 mg/L
same,growth rate,[3],1.4 times
same,total yield of taxane,[3],1.29 mg/L
same,yield of baccatin III,[3],0.39 mg/L
same,yield of cephalomannine,[3],0.32 mg/L
same,yield of taxol,[3],0.58 mg/L
same,growth rate,[4],2.1 times
same,total yield of taxane,[4],3.30 mg/L
same,yield of baccatin III,[4],0.70 mg/L
same,yield of cephalomannine,[4],1.54 mg/L
same,yield of taxol,[4],1.06 mg/L
same,growth rate,[5],2.0 times
same,total yield of taxane,[5],8.22 mg/L
same,yield of baccatin III,[5],0.76 mg/L
same,yield of cephalomannine,[5],2.68 mg/L
same,yield of taxol,[5],4.78 mg/L
same,growth rate,[6],2.3 times
same,total yield of taxane,[6],11.96 mg/L
same,yield of baccatin III,[6],1.64 mg/L
same,yield of cephalomannine,[6],4.09 mg/L
same,yield of taxol,[6],6.23 mg/L
same,growth rate,[7],2.1 times
same,total yield of taxane,[7],17.18 mg/L
same,yield of baccatin III,[7],2.09 mg/L
same,yield of cephalomannine,[7],5.63 mg/L
same,yield of taxol,[7],9.46 mg/L
same,growth rate,[8],2.4 times
same,total yield of taxane,[8],6.89 mg/L
same,yield of baccatin III,[8],0.89 mg/L
same,yield of cephalomannine,[8],1.97 mg/L
same,yield of taxol,[8],4.03 mg/L
same,growth rate,[9],2.4 times
same,total yield of taxane,[9],4.17 mg/L
same,yield of baccatin III,[9],0.68 mg/L
same,yield of cephalomannine,[9],1.32 mg/L
same,yield of taxol,[9],2.17 mg/L
same,growth rate,[10],2.3 times
same,total yield of taxane,[10],3.42 mg/L
same,yield of baccatin III,[10],0.62 mg/L
same,yield of cephalomannine,[10],1.01 mg/L
same,yield of taxol,[10],1.79 mg/L
same,growth rate,[11],2.9 times
same,total yield of taxane,[11],1.86 mg/L
same,yield of baccatin III,[11],0.50 mg/L
same,yield of cephalomannine,[11],0.64 mg/L
same,yield of taxol,[11],0.72 mg/L
"Cl.NOCC(=O)O [aminooxyacetic acid, aminoxyacetic acid hydrochloride]",growth rate,[12],0.9 times
same,total yield of taxane,[12],0 mg/L
same,yield of baccatin III,[12],0 mg/L
same,yield of cephalomannine,[12],0 mg/L
same,yield of taxol,[12],0 mg/L
same,growth rate,[13],1.2 times
same,total yield of taxane,[13],1.03 mg/L
same,yield of baccatin III,[13],0.33 mg/L
same,yield of cephalomannine,[13],0.26 mg/L
same,yield of taxol,[13],0.44 mg/L
same,growth rate,[14],1.5 times
same,total yield of taxane,[14],1.93 mg/L
same,yield of baccatin III,[14],0.32 mg/L
same,yield of cephalomannine,[14],0.71 mg/L
same,yield of taxol,[14],0.90 mg/L
same,growth rate,[15],1.5 times
same,total yield of taxane,[15],3.43 mg/L
same,yield of baccatin III,[15],1.11 mg/L
same,yield of cephalomannine,[15],0.71 mg/L
same,yield of taxol,[15],1.61 mg/L
same,growth rate,[16],1.7 times
same,total yield of taxane,[16],5.80 mg/L
same,yield of baccatin III,[16],1.92 mg/L
same,yield of cephalomannine,[16],1.22 mg/L
same,yield of taxol,[16],2.66 mg/L
same,growth rate,[17],1.7 times
same,total yield of taxane,[17],3.81 mg/L
same,yield of baccatin III,[17],1.30 mg/L
same,yield of cephalomannine,[17],1.16 mg/L
same,yield of taxol,[17],1.35 mg/L
same,growth rate,[18],1.5 times
same,total yield of taxane,[18],3.00 mg/L
same,yield of baccatin III,[18],1.08 mg/L
same,yield of cephalomannine,[18],0.73 mg/L
same,yield of taxol,[18],1.19 mg/L
same,growth rate,[19],1.7 times
same,total yield of taxane,[19],2.33 mg/L
same,yield of baccatin III,[19],0.66 mg/L
same,yield of cephalomannine,[19],0.65 mg/L
same,yield of taxol,[19],1.02 mg/L
same,growth rate,[20],1.8 times
same,total yield of taxane,[20],2.00 mg/L
same,yield of baccatin III,[20],0.61 mg/L
same,yield of cephalomannine,[20],0.62 mg/L
same,yield of taxol,[20],0.77 mg/L
same,growth rate,[21],2.3 times
same,total yield of taxane,[21],1.38 mg/L
same,yield of baccatin III,[21],0.21 mg/L
same,yield of cephalomannine,[21],0.58 mg/L
same,yield of taxol,[21],0.59 mg/L
[Cl][Co][Cl] [cobalt chloride],growth rate,"1 M added at start, 21 days",0.6 times
same,total yield of taxane,"1 M added at start, 21 days",0 mg/L
same,yield of baccatin III,"1 M added at start, 21 days",0 mg/L
same,yield of cephalomannine,"1 M added at start, 21 days",0 mg/L
same,yield of taxol,"1 M added at start, 21 days",0 mg/L
same,growth rate,[22],2.6 times
same,total yield of taxane,[22],27.66 mg/L
same,yield of baccatin III,[22],5.32 mg/L
same,yield of cephalomannine,[22],6.58 mg/L
same,yield of taxol,[22],15.76 mg/L
same,growth rate,[3],0.8 times
same,total yield of taxane,[3],1.08 mg/L
same,yield of baccatin III,[3],0.11 mg/L
same,yield of cephalomannine,[3],0.42 mg/L
same,yield of taxol,[3],0.55 mg/L
same,growth rate,[4],1.4 times
same,total yield of taxane,[4],2.14 mg/L
same,yield of baccatin III,[4],0.44 mg/L
same,yield of cephalomannine,[4],0.78 mg/L
same,yield of taxol,[4],0.92 mg/L
same,growth rate,[5],2.2 times
same,total yield of taxane,[5],7.98 mg/L
same,yield of baccatin III,[5],1.57 mg/L
same,yield of cephalomannine,[5],2.03 mg/L
same,yield of taxol,[5],4.38 mg/L
same,growth rate,[6],2.7 times
same,total yield of taxane,[6],10.02 mg/L
same,yield of baccatin III,[6],1.64 mg/L
same,yield of cephalomannine,[6],3.46 mg/L
same,yield of taxol,[6],4.92 mg/L
same,growth rate,[7],3.2 times
same,total yield of taxane,[7],28.29 mg/L
same,yield of baccatin III,[7],5.68 mg/L
same,yield of cephalomannine,[7],6.50 mg/L
same,yield of taxol,[7],16.11 mg/L
same,growth rate,[23],3.2 times
same,total yield of taxane,[23],20.56 mg/L
same,yield of baccatin III,[23],4.36 mg/L
same,yield of cephalomannine,[23],5.98 mg/L
same,yield of taxol,[23],10.22 mg/L
same,growth rate,[17],3.1 times
same,total yield of taxane,[17],13.48 mg/L
same,yield of baccatin III,[17],2.01 mg/L
same,yield of cephalomannine,[17],4.37 mg/L
same,yield of taxol,[17],7.10 mg/L
same,growth rate,[24],2.9 times
same,total yield of taxane,[24],3.60 mg/L
same,yield of baccatin III,[24],1.17 mg/L
same,yield of cephalomannine,[24],1.11 mg/L
same,yield of taxol,[24],1.32 mg/L
same,growth rate,[25],2.5 times
same,total yield of taxane,[25],62.78 mg/L
same,yield of baccatin III,[25],23.00 mg/L
same,yield of cephalomannine,[25],9.46 mg/L
same,yield of taxol,[25],30.32 mg/L
same,growth rate,[26],2.4 times
same,total yield of taxane,[26],74.83 mg/L
same,yield of baccatin III,[26],25.85 mg/L
same,yield of cephalomannine,[26],15.21 mg/L
same,yield of taxol,[26],33.77 mg/L
same,growth rate,[27],2.7 times
same,total yield of taxane,[27],52.24 mg/L
same,yield of baccatin III,[27],17.61 mg/L
same,yield of cephalomannine,[27],7.99 mg/L
same,yield of taxol,[27],26.64 mg/L
same,growth rate,[8],2.4 times
same,total yield of taxane,[8],16.36 mg/L
same,yield of baccatin III,[8],2.25 mg/L
same,yield of cephalomannine,[8],5.79 mg/L
same,yield of taxol,[8],8.32 mg/L
same,growth rate,[9],2.6 times
same,total yield of taxane,[9],1.08 mg/L
same,yield of baccatin III,[9],0.16 mg/L
same,yield of cephalomannine,[9],0.63 mg/L
same,yield of taxol,[9],0.29 mg/L
same,growth rate,[10],2.6 times
same,total yield of taxane,[10],1.05 mg/L
same,yield of baccatin III,[10],0.15 mg/L
same,yield of taxol,[10],0.29 mg/L
same,growth rate,[11],2.5 times
same,total yield of taxane,[11],0.98 mg/L
same,yield of baccatin III,[11],0.15 mg/L
same,yield of cephalomannine,[11],0.56 mg/L
same,yield of taxol,[11],0.27 mg/L
O=[N+]([O-])[O-].[Ag+] [silver nitrate],growth rate,[5],2.8 times
same,total yield of taxane,[5],23.21 mg/L
same,yield of baccatin III,[5],3.01 mg/L
same,yield of cephalomannine,[5],7.54 mg/L
same,yield of taxol,[5],12.66 mg/L
same,growth rate,[15],2.8 times
same,total yield of taxane,[15],20.58 mg/L
same,yield of baccatin III,[15],2.18 mg/L
same,yield of cephalomannine,[15],6.49 mg/L
same,yield of taxol,[15],11.91 mg/L
